Measurements published in patent publication US11371019B2, “Efficient generation of human red blood cells via enriching peripheral blood erythroid progenitors” (Whitehead Institute for Biomedical Research, priority 2016, dated 2022).

Experiments:
[1] = test system: TGFBR3^lo mouse BFU-E cells; test: colony forming assay for large BFU-E colony numbers; assay type: cell-based; settings: culture system; FIG. 12
Method: FIG. 12. A chart showing an exemplary colony forming assays were conducted to determine large BFU-E colony numbers from 100 TGFBR3^lo mouse BFU-E cells cultured under the indicated conditions. Colony forming assays were performed at indicated time points.
(§1) For new drug discovery or drug repurposing for treating blood diseases, compounds of interest were added into cell culture after progenitor purification. The efficacy of drugs is evaluated based on total red blood cell production, numbers of erythroid progenitor BFU-E and CFU-E (quantified by colony forming assay) and/or level of fetal globin expression.

[2] = test system: purified mouse TGFBR3^lo BFU-E cells; test: total red cell production from purified BFU-E cells in SFELE medium; assay type: cell-based; settings: culture system; FIG. 13
Method: FIG. 13. A chart showing the treatment of purified mouse TGFBR3^lo BFU-E cells with DMSO, DEX or TGFβ signaling inhibitor galunisertib. The cells were seeded in SFELE medium supplemented with the test agent.
as §1

SMILES: Cc1cccc(-c2nn3c(c2-c2ccnc4ccc(C(N)=O)cc24)CCC3)n1 [galunisertib]
- BFU-E numbers [1]: increase BFU-E numbers
- total red cell production [2]: increase
